Earlier results on ten compounds are cited in patent US7160060B1, “System and method of remediation of contaminants” (priority 2004, dated 2007).

Where two headings read alike, the source gives them in different places.

The mark [1] stands for this setting: select polycyclic aromatic hydrocarbons (Table 3).
Where [2] appears, read: select chlorinated organics (Table 1).

Turning to `c1ccc2cc3ccccc3cc2c1` [Anthracene], the “SOLUBILITY IN WATER at 25° C.” value under setting [1] is reported as 0.075 mg/L.
Regarding `c1ccc2c(c1)ccc1ccccc12` [Phenanthrene], under setting [1], the “SOLUBILITY IN WATER at 25° C.” value is given as 1.18 mg/L.
Take `Cc1ccc(C)cc1` [p-xylene isomer, p-xylene]: where the note is “select volatile organic chemicals (BTEX) (Table 2)”, the “SOLUBILITY IN WATER at 25° C.” value is given as 198 mg/L.
For the compound `c1cc2ccc3ccc4ccc5cccc6c(c1)c2c3c4c56` [Benzo(g,h,i)perylene], the “SOLUBILITY IN WATER at 25° C.” value under setting [1] is 0.00026 mg/L.
As for `C=CCl` [Vinyl Chloride], the “SOLUBILITY IN WATER at 25° C.” value under setting [2] is 8,800 mg/L.
For the compound `c1ccc2c(c1)cc1ccc3cccc4ccc2c1c34` [Benzo(a)pyrene], under setting [1], the “SOLUBILITY IN WATER at 25° C.” value is listed as 0.0016 mg/L.
Consider `c1ccc2c(c1)ccc1cc3c(ccc4ccccc43)cc12` [Dibenz(a,h)anthracene], for which the “SOLUBILITY IN WATER at 25° C.” value under setting [1] is 0.0006 mg/L.
Regarding `ClC=C(Cl)Cl` [Trichloroethylene], the “SOLUBILITY IN WATER at 25° C.” value under setting [2] is 1,280 mg/L.
On to `c1ccc2c(c1)ccc1c3ccccc3ccc21` [Chrysene], for which the “SOLUBILITY IN WATER at 25° C.” value under setting [1] is listed as 0.00189 mg/L.
As for `ClC(Cl)=C(Cl)Cl` [Perchloroethylene], the “SOLUBILITY IN WATER at 25° C.” value under setting [2] was 150 mg/L.
